Earlier results as cited in patent US20250205347A1, “METHODS FOR TREATING INFLAMMATORY CONDITIONS OF THE EYE WITH AN IGF-1R LIGAND CONJUGATED TO A DISEASE-MODIFYING AGENT” (Lirum Therapeutics, Inc., priority 2022, published 2025).

How the values were obtained:
[1] = test system: IGFBPs; details: known in the art (U.S. Pat. No. 4,876,242; Francis et al. 1992)
[2] = target: IGF-1R (Homo sapiens, UniProt P08069); details: relative to IGF-1 / IGF-2; Hakuno et al. 2018
IGF-1R, sequence (P08069 31-736 limits assumed, species assumed): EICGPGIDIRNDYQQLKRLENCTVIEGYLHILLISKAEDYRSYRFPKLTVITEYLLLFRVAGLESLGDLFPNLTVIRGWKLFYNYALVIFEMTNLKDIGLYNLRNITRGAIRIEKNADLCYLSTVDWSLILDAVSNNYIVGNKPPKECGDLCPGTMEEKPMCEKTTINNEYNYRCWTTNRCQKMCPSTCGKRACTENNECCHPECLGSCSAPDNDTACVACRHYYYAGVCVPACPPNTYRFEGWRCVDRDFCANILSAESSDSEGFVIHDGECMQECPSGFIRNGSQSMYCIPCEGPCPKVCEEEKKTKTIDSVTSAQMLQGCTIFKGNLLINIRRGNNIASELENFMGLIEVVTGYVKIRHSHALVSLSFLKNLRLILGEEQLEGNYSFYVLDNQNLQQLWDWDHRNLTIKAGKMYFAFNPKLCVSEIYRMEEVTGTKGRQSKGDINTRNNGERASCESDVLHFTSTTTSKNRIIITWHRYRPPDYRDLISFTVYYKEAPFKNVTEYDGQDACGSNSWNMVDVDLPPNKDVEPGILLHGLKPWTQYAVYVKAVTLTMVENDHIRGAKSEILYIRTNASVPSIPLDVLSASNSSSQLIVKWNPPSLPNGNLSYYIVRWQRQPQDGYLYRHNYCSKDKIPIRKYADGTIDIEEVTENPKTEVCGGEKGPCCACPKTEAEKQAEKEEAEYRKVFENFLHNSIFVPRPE
IGF-1R, sequence (P08069 741-1367 partner limits assumed, species assumed): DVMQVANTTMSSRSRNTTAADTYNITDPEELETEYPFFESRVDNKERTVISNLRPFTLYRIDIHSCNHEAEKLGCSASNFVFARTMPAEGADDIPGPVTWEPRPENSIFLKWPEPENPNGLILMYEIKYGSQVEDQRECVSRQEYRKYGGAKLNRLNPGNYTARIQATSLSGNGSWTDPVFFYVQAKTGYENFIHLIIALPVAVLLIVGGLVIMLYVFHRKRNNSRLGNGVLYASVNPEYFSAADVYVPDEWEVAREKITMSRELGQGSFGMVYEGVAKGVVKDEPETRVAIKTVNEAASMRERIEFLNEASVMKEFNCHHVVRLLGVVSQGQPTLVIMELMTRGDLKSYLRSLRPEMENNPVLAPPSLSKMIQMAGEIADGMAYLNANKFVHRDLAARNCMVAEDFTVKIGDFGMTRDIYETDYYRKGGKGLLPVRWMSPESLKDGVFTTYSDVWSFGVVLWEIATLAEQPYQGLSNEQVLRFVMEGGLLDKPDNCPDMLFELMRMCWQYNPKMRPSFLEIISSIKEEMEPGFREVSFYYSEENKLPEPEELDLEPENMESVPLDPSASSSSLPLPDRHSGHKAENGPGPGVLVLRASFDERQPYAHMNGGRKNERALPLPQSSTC

Row | Molecule | binding affinity for IGFBPs as compared to wildtype IGF-1 [1] | affinity of IGF-1R for the ligand, fold lower [2]
1 | insulin: native IGF-1R ligand; mature human insulin, chain A SEQ ID NO:10 and chain B SEQ ID NO:11 | – | 50-to 100 fold
2 | des(1-3) IGF-1: IGF-1 variant (SEQ ID NO:7) lacking the first three amino acids of human IGF-1 | reduced binding affinity for IGFBPs | –

Continued, in another order:

Row | binding affinity for IGFBPs as compared to wildtype IGF-1 [1] | Molecule | affinity of IGF-1R for the ligand, fold lower [2]
3 | reduced binding affinity for IGFBPs | R3-IGF-1: IGF-1 variant (SEQ ID NO:6): glutamic acid in position 3 of human IGF-1 substituted by arginine | –
4 | reduced binding affinity for IGFBPs | IGF132: IGF-1 variant (SEQ ID NO:4): first 17 amino acids of insulin B chain replace first 16 amino acids of human IGF-1 (protein) FVNQHLCGSHLVEALYLVCGDRGFYFNKPTGYGSSSRRAPQTGIVDECCFRSCDLRRLEMYCAPLKPAKSA | –
